Assay [1] has as its system Human immunodeficiency virus 1. Description: Concentration required to block the Nuclear translocation of HIV-1 pre-integration complex with Reverse Transcriptase protein; NA: Not Active. Format: functional, organism-based.
Assay [2] deals with Human immunodeficiency virus 1. Description: Concentration required to block the Nuclear translocation of HIV-1 pre-integration complex with Reverse Transcriptase protein. The class given is functional, organism-based.

pIC50: −log10 of the molar value.

Turning to `Cc1cc(Nc2cc(C(C)O)cc(C(C)O)c2)nc(N)[n+]1C` (centres undefined), the IC50 result in assay [1] is “Not Active”. Broadly, the pIC50 is the IC50 on a negative log10 scale, so that one unit is a factor of ten. The low end stands for a large IC50, the high end for a small IC50. `CC(=O)c1cc(Nc2cc(C)[n+](C)c(N)n2)cc(C(C)=O)c1`: the pIC50 in assay [2] was 7.00. On to `COC(=O)c1cc(Nc2cc(C)[n+](C)c(N)n2)cc(C(=O)OC)c1`, for which the IC50 result in assay [1] is “Not Active”. Regarding `Cc1cc(Nc2cc(C(=O)O)cc(C(=O)O)c2)nc(N)[n+]1C`, the pIC50 in assay [2] was 7.00.

The record behind these values is ChEMBL document CHEMBL1134938, “Inhibition of HIV-1 nuclear import via schiff base formation with arylene bis(methylketone) compounds” (Bioorg Med Chem Lett, 2002).
